Laboratory results reported in ChEMBL document CHEMBL1140026 (Bioorg Med Chem Lett, 2007).

Target: cGMP-specific 3',5'-cyclic phosphodiesterase (Homo sapiens, UniProt O76074)
Experiment: Inhibition of PDE5

| Compound | IC50 [nM] |
| --- | --- |
| CCCOc1ccc(S(=O)(=O)N2CCC(CCC(=O)O)CC2)cc1-c1nc2c(CCC)nn(C)c2c(=O)[nH]1 | 0.0501 |
| CCCc1nn(C)c2c(=O)[nH]c(-c3cc(S(=O)(=O)N4CCN(C)CC4)cc4c3OCC4)nc12 | 240 |
| CCCc1nn(C)c2c(=O)[nH]c(-c3cc(S(=O)(=O)N4CCN(C)CC4)cc4c3OCCO4)nc12 | 7.94 |
| CCCc1nn(C)c2c(=O)[nH]c(-c3cc(S(=O)(=O)N4CCN(CCO)CC4)cc4c3OCCO4)nc12 | 6.31 |
| CCCc1nn(C)c2c(=O)[nH]c(-c3cc(S(=O)(=O)N4CCC(C(=O)O)CC4)ccc3OCC)nc12 | 0.513 |
| CCCc1nn(C)c2c(=O)[nH]c(-c3cc(S(=O)(=O)N4CCC(CC(=O)O)CC4)ccc3OCC)nc12 | 0.331 |
| CCCOc1ccc(NC(=O)CCC)cc1-c1nc2c(CCC)nn(C)c2c(=O)[nH]1 | 0.269 |
| CCCc1nn(C)c2c(=O)[nH]c(-c3cc(S(=O)(=O)N4CCN(CCC(=O)O)CC4)ccc3OCC)nc12 | 0.407 |
| CCCc1nn(C)c2c(=O)[nH]c(-c3cc(S(=O)(=O)N4CCC(CCCC(=O)O)CC4)ccc3OCC)nc12 | 0.219 |
| CCCOc1ccc(S(=O)(=O)N2CCC(CCCC(=O)O)CC2)cc1-c1nc2c(CCC)nn(C)c2c(=O)[nH]1 | 0.501 |

The remaining molecules from weak to strong by IC50, led by results:

| IC50 [nM] | Compound |
| --- | --- |
| 331 | CCCc1nn(C)c2c(=O)[nH]c(-c3cc(S(=O)(=O)N4CCN(CCO)CC4)cc4c3OCO4)nc12 |
| 204 | CCCc1nn(C)c2c(=O)[nH]c(-c3cc(S(=O)(=O)N4CCN(CCO)CC4)cc4c3OCC4)nc12 |
| 12.6 | CCCc1nn(C)c2c(=O)[nH]c(-c3cc(S(=O)(=O)N4CCN(CCO)CC4)cc4c3OCCC4)nc12 |
| 0.813 | CCCOc1ccc(NC(C)=O)cc1-c1nc2c(CCC)nn(C)c2c(=O)[nH]1 |
| 0.417 | CCCOc1ccc(NC(=O)C2CCCCC2)cc1-c1nc2c(CCC)nn(C)c2c(=O)[nH]1 |
| 0.38 | CCCOc1ccc(NC(=O)CC)cc1-c1nc2c(CCC)nn(C)c2c(=O)[nH]1 |
| 0.347 | CCCOc1ccc(NC(=O)C(C)C)cc1-c1nc2c(CCC)nn(C)c2c(=O)[nH]1 |
| 0.151 | CCCc1nn(C)c2c(=O)[nH]c(-c3cc(S(=O)(=O)N4CCC(CCC(=O)O)CC4)ccc3OCC)nc12 |
| 0.151 | CCCOc1ccc(S(=O)(=O)N2CCC(C(=O)O)CC2)cc1-c1nc2c(CCC)nn(C)c2c(=O)[nH]1 |
| 0.11 | CCCOc1ccc(S(=O)(=O)N2CCC(CC(=O)O)CC2)cc1-c1nc2c(CCC)nn(C)c2c(=O)[nH]1 |
